Experimental data published in patent US20240300886A1, “ARYLCYCLOHEXYLAMINE DERIVATIVES AND THEIR USE IN THE TREATMENT OF PSYCHIATRIC DISORDERS” (GILGAMESH PHARMACEUTICALS, INC., priority 2021, published 2024).
Read-outs that look alike come from different tables or passages of the source.

Legend:
[1] = Metabolic stability in Gottingen minipig liver microsomes (MPLM); format: in vitro ADME, Gottingen minipigs; settings: pooled minipig liver microsomes, pH 7.4, 1 μM compound, 0.50 mg protein/mL, NADPH
Protocol: MPLM Stability. Pooled MPLM from Gottingen minipigs (Xenotech Z6000) were used. Microsomal incubations were carried out in multi-well plates. Liver microsomal incubation medium consisted of PBS (100 mM pH 7.4), MgCl2 (1 mM), and NADPH (1 mM), with 0.50 mg of liver microsomal protein per mL. Control incubations were performed by replacing the NADPH-cofactor system with PBS. Test compounds (1 μM, final solvent concentration 1.0%) were incubated with microsomes at 37° C. with constant shaking. Six time points over 60 minutes were analyzed, with 60 μL aliquots of the reaction mixture being drawn at each time point. The reaction aliquots were stopped by adding 180 μL of cold (4° C.) acetonitrile containing 200 ng/mL tolbutamide and 200 ng/mL labetalol as internal standards (IS), followed by shaking for 10 minutes, and then protein sedimentation by centrifugation at 4,000 rpm for 20 minutes at 4° C. Supernatant samples (80 μL) were diluted with water (240 μL) and analyzed for parent compound remaining using a fit-for-purpose liquid chromatography-tandem mass spectrometry (LC-MS/MS) method.
Data Analysis. The elimination constant (kel), half-life (t1/2) and intrinsic clearance (Clint) were determined in a plot of […] versus time, using linear regression analysis.

[2] = Oral bioavailability in rats, Method B (plasma and brain PK); format: in vivo, Sprague Dawley rats; settings: for half-life / Cmax / AUC(0-inf): male, Sprague Dawley; for half-life / Cmax / AUC(0-inf) / AUC0-inf (iv) / AUC0-inf (po) / F: Method B; for AUC(0-inf) / AUC0-inf (iv) / AUC0-inf (po): values represent AUC0-last; for F: 1 mg/kg
Protocol: (§1) Animals. Male Sprague Dawley rats were used in these studies. Animals were randomly assigned to treatment groups and were fasted for 4 h before dosing.
Drugs. Test compounds were dissolved in a vehicle consisting of normal saline (for compounds used as the HCl salt) or normal saline slightly acidified with aq. HCl (for freebase compounds). They were then administered intravenously (iv) or orally (po) at a dose of […] (calculated based on freebase), as indicated, and at a volume of 5 mL/kg body weight. Compounds were tested as the racemates or pure enantiomers, as indicated.
(§2) Sample Collection and Bioanalysis. Blood samples (approximately 60 μL) were collected under light isoflurane anesthesia (Surgivet®) from the retro orbital plexus at 0.08, 0.25, 0.5, 1, 2, 4, 8, and 24 h (4 animals per time point). Immediately after blood collection, plasma was harvested by centrifugation at 4,000 rpm for 10 min at 4° C. and samples were stored at −70±10° C. until bioanalysis. Following blood collection, animals were immediately sacrificed, the abdominal vena-cava was cut open, and the whole body was perfused from the heart using 10 mL of normal saline, and brain samples were collected from all animals. After isolation, brain samples were rinsed three times in ice-cold normal saline (for 5-10 seconds/rinse using ˜-5-10 mL normal saline in disposable petri dish for each rinse) and dried on blotting paper. Brain samples were homogenized using ice-cold phosphate-buffered saline (pH 7.4). Total homogenate volume was three times the tissue weight. All homogenates were stored at −70±10° C. until bioanalysis. For bioanalysis, 25 μL aliquots of plasma/brain study samples or spiked plasma/brain calibration standards were added to individual pre-labeled micro-centrifuge tubes followed by 100 μL of an internal standard solution (glipizide, 500 ng/mL in acetonitrile) except for blanks, where 100 μL of acetonitrile was added. Samples were vortexed for 5 minutes and then centrifuged for 10 minutes at 4,000 rpm at 4° C. Following centrifugation, 100 μL of each clear supernatant was transferred to a 96 well plate and analyzed with a fit-for-purpose LC-MS/MS method, with authentic samples of each analyte used for calibration and identification.
(§3) Data Analysis. Pharmacokinetic parameters were estimated using the non-compartmental analysis tool of Phoenix® WinNonlin software (Ver 8.0).

[3] = Comparative metabolism/PK of 2R and deuterated 7R in rats after oral administration; format: in vivo, Sprague Dawley rats; settings: for concentration at 0.083 h / concentration at 0.25 h / concentration at 0.5 h / concentration at 1 h / concentration at 2 h / concentration at 4 h: oral; for concentration at 0.083 h: 0.083 h after 10 mg/kg po of 2R or 7R; for concentration at 0.25 h: 0.25 h after 10 mg/kg po of 2R or 7R; for concentration at 0.5 h: 0.5 h after 10 mg/kg po of 2R or 7R; for concentration at 1 h: 1 h after 10 mg/kg po of 2R or 7R; for concentration at 2 h: 2 h after 10 mg/kg po of 2R or 7R; for concentration at 4 h: 4 h after 10 mg/kg po of 2R or 7R
Protocol: as §1
Drugs. Test compounds 2R and 7R were dissolved in a vehicle consisting of normal saline. They were then administered orally (po) at a dose of 10 mg/kg (calculated based on freebase), and at a volume of 5 mL/kg body weight.
as §2, with “˜5-10” for “˜-5-10”, “7.4)” for “7.4).”, “identification. Concentrations of parent compound (2R or 7R) and metabolite 1R were determined in all samples.” for “identification.”
as §3

[4] = rat brain, 1 mg/kg iv, read-out: t1/2 (iv)
[5] = rat brain, 1 mg/kg po, read-out: t1/2 (po)
[6] = rat plasma, 1 mg/kg iv, read-out: t1/2 (iv)
[7] = rat plasma, 1 mg/kg iv, read-out: AUC0-inf (iv) (converted)
[8] = rat plasma, 1 mg/kg po, read-out: t1/2 (po)
[9] = rat plasma, 1 mg/kg po, read-out: AUC0-inf (po) (converted)
[10] = rat brain, calculated based on brain exposure (AUC0-last)
[11] = male, Sprague Dawley, rat, plasma, 10 mg/kg, rat plasma, read-out: Mean plasma concentration
[12] = rat brain after 10 mg/kg po of 2R or 7R, parent or metabolite 1R as labelled
[13] = male, Sprague Dawley, rat, brain, 10 mg/kg, rat brain, read-out: Mean brain concentration

Structure (SMILES) | half-life at 1 μM [1] [h] | microsomal CLint at 1 μM [1] [µL/min/mg] | half-life [2, 4] [h] | Cmax ([2]; rat brain, 1 mg/kg po) [ng/g] | half-life [2, 5] [h] | half-life [2, 6] [h] | AUC(0-inf) [2, 7] [ng·h/mL] | Cmax ([2]; rat plasma, 1 mg/kg po) [ng/mL] | half-life [2, 8] [h] | AUC(0-inf) [2, 9] [ng·h/mL] | AUC0-inf (iv) ([2]; rat brain, 1 mg/kg iv) [ng·min/g] | AUC0-inf (po) ([2]; rat brain, 1 mg/kg po) [ng·min/g] | F [2, 10] [%] | F ([2]; rat plasma, based on AUC0-last) [%] | further results
N[C@]1(c2ccc(F)cc2)CCCCC1=O [Compound 1S, (S)-2-amino-2-(4-fluorophenyl)cyclohexan-1-one] | > 2.42 | < 9.6 | 4.09 | 167 | 7.11 | 2.58 | 805 | 234 | 3.88 | 1140 | 126462 | 79272.6 | 62.7 | >100 | 
CN[C@@]1(c2ccc(F)cc2)CCCCC1=O [Compound 2R, (R)-2-(4-fluorophenyl)-2(methylamino)cyclohexan-1-one] | 0.633 | 36.5 | 0.0633 | 42.8 | 0.99 | 2.77 | 163 | 17.7 | 1.58 | 50.3 | 27152.4 | 4915.8 | 18.1 | 31 | half-life ([3]; male, Sprague Dawley, rat, brain, po, 10 mg/kg, rat brain after 10 mg/kg po of 2R or 7R, parent or metabolite 1R as labelled, read-out: t1/2 (brain)): 1.18 h; concentration at 0.083 h [3, 11]: 37 ng/mL; concentration at 0.25 h [3, 11]: 760 ng/mL; concentration at 0.5 h [3, 11]: 850 ng/mL; concentration at 1 h [3, 11]: 497 ng/mL; concentration at 2 h [3, 11]: 142 ng/mL; concentration at 4 h [3, 11]: 42 ng/mL; Cmax ([3]; male, Sprague Dawley, rat, plasma, po, 10 mg/kg, rat plasma after 10 mg/kg po of 2R or 7R, parent or metabolite 1R as labelled): 850 ng/mL; AUC(0-t) ([3]; male, Sprague Dawley, rat, plasma, po, 10 mg/kg, rat plasma after 10 mg/kg po of 2R or 7R, parent or metabolite 1R as labelled, read-out: AUC0-last (plasma) (converted)): 1200 ng·h/mL; half-life ([3]; male, Sprague Dawley, rat, plasma, po, 10 mg/kg, rat plasma after 10 mg/kg po of 2R or 7R, parent or metabolite 1R as labelled, read-out: t1/2 (plasma)): 1.17 h; AUC0-last (brain) [3, 12]: 227268 ng·min/g; Cmax (brain) [3, 12]: 2599 ng/g; brain exposure after oral administration compared to enantiomer 2S ([2]; rats): substantially higher brain exposure
CN[C@]1(c2ccc(F)cc2)CCCCC1=O [Compound 2S, (S)-2-(4-fluorophenyl)-2-(methylamino)cyclohexan-1-one] | 0.515 | 44.9 | 0.7 | 47.6 |  | 0.7 | 186 | 32.3 | 1.46 | 37.8 | 68000.4 | 3067.2 | 4.5 | 20 | concentration at 0.083 h [3, 13]: 43 ng/g; concentration at 0.25 h [3, 13]: 1900 ng/g; concentration at 0.5 h [3, 13]: 2600 ng/g; concentration at 1 h [3, 13]: 1510 ng/g; concentration at 2 h [3, 13]: 521 ng/g; concentration at 4 h [3, 13]: 155 ng/g
